Our source for the IC50 values is patent US20060142321A1, “5-HT7 receptor antagonists” (priority 2004, published 2006).

Where a name gives a salt, the structure may show the parent alone.

In the experiment the target is T1, Cloned Human Serotonin Receptor, Subtype 7 (h5HT7) (Homo sapiens, UniProt P34969).
T1 construct: purchased PerkinElmer 6120512; host or cells: CHO cells (membranes coated on Basic FlashPlate SMP200)
The experiment in a line: Radioligand binding assay, [125I]LSD, cloned h5HT7 expressed in CHO cells (Flashplate). Particulars: [125I]LSD 0.82 nM, room temperature, 240 minutes, read-out: 5-HT7 IC-50. As for the experimental part: Biological Assays Radioligand Binding
Radioligand binding assays were performed using the Cloned Human Serotonin Receptor, Subtype 7 (h5HT7), expressed in CHO cells, coated on Flashplate (Basic FlashPlate Cat.: SMP200) from PerkinElmer (Cat.: 6120512). The protocol assay was essentially the recommended protocol in the Technical Data Sheet by PerkinEmer Life and Analytical Sciences. The Mass membrane protein/well was typically 12 μg and the Receptor/well was about 9-10 fmoles. The Flashplate were let equilibrate at room temperature for one hour before the addition of the components of the assay mixture. The binding buffer was: 50 mM Tris-HCl, pH 7.4, containing 10 mM MgCl2, 0.5 mM EDTA and 0.5% BSA. The radioligand was [^125I]LSD at a final concentration of 0.82 nM. Nonspecific binding was determined with 50 μM of Clozapine. The assay volume was 25 μl. TopSeal-A were applied onto Flashplate microplates and they were incubated at room temperature for 240 minutes in darkness. The radioactivity were quantified by liquid scintillation spectrophotometry (Wallac 1450 Microbeta Trilux) with a count delay of 4 minutes prior to counting and a counting time of 30 seconds per well. Competition binding data were analyzed by using the LIGAND program (Munson and Rodbard, LIGAND: A versatile, computerized approach for characterization of ligand-binding systems. Anal. Biochem. 107: 220-239, 1980) and assays were performed in triplicate determinations for each point.

T1 sequence (P34969 whole entry): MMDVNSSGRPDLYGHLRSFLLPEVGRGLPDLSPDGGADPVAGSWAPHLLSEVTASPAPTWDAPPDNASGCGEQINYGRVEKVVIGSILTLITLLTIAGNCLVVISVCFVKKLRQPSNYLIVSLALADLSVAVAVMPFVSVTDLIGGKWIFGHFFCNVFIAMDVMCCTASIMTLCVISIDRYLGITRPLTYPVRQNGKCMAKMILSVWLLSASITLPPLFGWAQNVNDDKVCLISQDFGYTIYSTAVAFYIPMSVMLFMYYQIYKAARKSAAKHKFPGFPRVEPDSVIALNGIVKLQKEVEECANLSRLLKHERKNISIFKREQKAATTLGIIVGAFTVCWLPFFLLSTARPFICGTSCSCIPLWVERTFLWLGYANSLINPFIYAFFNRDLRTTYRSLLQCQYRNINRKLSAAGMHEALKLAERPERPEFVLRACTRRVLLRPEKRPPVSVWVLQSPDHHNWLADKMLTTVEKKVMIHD

With `COc1cc2c3c(c1OC)CCC3N(CCCNS(=O)(=O)c1cc(F)c(F)cc1Cl)CC2` (stereo not shown) [Compound 58, 2-Chloro-N-[3-(7,8-dimethoxy-2,2a,4-5-tetrahydro-1H-3-aza-acenaphthylen-3-yl)-propyl]-4,5-difluoro-benzene sulfonamide hydrochloride], the IC50 was determined as 189 nM.
Next, `O=S(=O)(NCCCN1CCc2cccc3c2C1CC3)c1cc(Cl)ccc1Cl` (stereo not shown) [Compound 15, 2,5-Dichloro-N-[3-(2,2a,4-5-tetrahydro-1H-3-aza-acenaphthylen-3-yl)-propyl]-benzenesulfonamide hydrochloride]: 142 nM; `Cc1cc(S(=O)(=O)NCCCCN2CCc3cccc4c3C2CC4)c(C)cc1Cl` (stereo not shown) [Compound 7, 4-Chloro-2,5-dimethyl-N-[4-(2,2a,4-5-tetrahydro-1H-3-aza-acenaphthylen-3-yl)-butyl]-benzenesulfonamide hydrochloride]: 79.2 nM; `COc1cc2c3c(c1OC)CCC3N(CCCNS(=O)(=O)c1cc(Cl)ccc1Cl)CC2` (stereo not shown) [Compound 56, 2,5-Dichloro-N-[3-(7,8-dimethoxy-2,2a,4-5-tetrahydro-1H-3-aza-acenaphthylen-3-yl)-propyl]-benzene sulfonamide hydrochloride]: 156 nM.
